According to PubChem BioAssay AID330 (DTP/NCI, 2004):
Where “and” joins values, the source holds several entries; their conditions need not be identical. Equal values may be shown once. Inconclusive results and toxic doses are left out.

Test system: P388 leukemia ip, CD2F1 mice, survival T/C
Experiment: NCI In Vivo Anticancer Drug Screen. Data for tumor model P388 Leukemia (intraperitoneal) in CD2F1 (CDF1) mice
Conditions: endpoint: median survival time, higher = longer survival
Method in brief: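 Mice carrying the transplanted tumor received test compound or vehicle. Survival was recorded in each group, and the value is the treated-group measurement divided by that of the vehicle-treated control group.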

[1] = dose: 25.0 mg/kg/injection, schedule: Q01DX009 (ip), vehicle: saline
[2] = dose: 12.5 mg/kg/injection, schedule: Q01DX009 (ip), vehicle: saline
[3] = dose: 50.0 mg/kg/injection, schedule: Q01DX009 (ip), vehicle: saline
[4] = dose: 12.5 mg/kg/injection, schedule: Q01DX009 (ip), vehicle: saline with Tween-80
[5] = dose: 25.0 mg/kg/injection, schedule: Q01DX009 (ip), vehicle: saline with Tween-80
[6] = dose: 50.0 mg/kg/injection, schedule: Q01DX009 (ip), vehicle: saline with Tween-80
[7] = dose: 100.0 mg/kg/injection, schedule: Q01DX009 (ip), vehicle: saline with Tween-80
[8] = dose: 60.0 mg/kg/injection, schedule: Q01DX005 (ip), vehicle: Klucel (hydroxypropylcellulose) (HPC)
[9] = dose: 120.0 mg/kg/injection, schedule: Q01DX005 (ip), vehicle: Klucel (hydroxypropylcellulose) (HPC)
[10] = dose: 400.0 mg/kg/injection, schedule: Q01DX009 (ip), vehicle: saline with Tween-80
[11] = dose: 100.0 mg/kg/injection, schedule: Q01DX009 (ip), vehicle: Klucel (hydroxypropylcellulose) (HPC)
[12] = dose: 200.0 mg/kg/injection, schedule: Q01DX009 (ip), vehicle: Klucel (hydroxypropylcellulose) (HPC)
[13] = dose: 50.0 mg/kg/injection, schedule: Q01DX005 (ip), vehicle: Klucel (hydroxypropylcellulose) (HPC)
[14] = dose: 100.0 mg/kg/injection, schedule: Q01DX005 (ip), vehicle: Klucel (hydroxypropylcellulose) (HPC)

N=[N+]=CC(=O)OCC(N)C(=O)O (configuration not stated)
T/C (dose: 2.3 mg/kg/injection, schedule: Q01DX009 (ip), vehicle: water): 118 % of control | T/C (dose: 6.25 mg/kg/injection, schedule: Q04DX003 (ip), vehicle: water): 120 % of control | T/C (dose: 18.8 mg/kg/injection, schedule: Q01DX009 (ip), vehicle: water): 86 % of control and 91 % of control | T/C (dose: 20.0 mg/kg/injection, schedule: Q01DX009 (ip), vehicle: saline): 169 % of control | T/C [1]: 153 % of control | T/C (dose: 25.0 mg/kg/injection, schedule: Q04DX003 (ip), vehicle: water): 157 % of control | T/C (dose: 40.0 mg/kg/injection, schedule: Q01DX009 (ip), vehicle: saline): 107 % of control and 121 % of control | T/C (dose: 41.7 mg/kg/injection, schedule: Q01DX009 (ip), vehicle: saline): 166 % of control | T/C (dose: 50.0 mg/kg/injection, schedule: Q04DX003 (ip), vehicle: water): 111 % of control

Cc1cccc(-[n+]2noc(N)n2)c1
T/C (dose: 3.13 mg/kg/injection, schedule: Q01DX009 (ip), vehicle: water): 100 % of control | T/C (dose: 6.25 mg/kg/injection, schedule: Q01DX009 (ip), vehicle: water): 100 % of control | T/C (dose: 12.5 mg/kg/injection, schedule: Q01DX009 (ip), vehicle: water): 114 % of control | T/C (dose: 25.0 mg/kg/injection, schedule: Q01DX009 (ip), vehicle: water): 152 % of control | T/C (dose: 50.0 mg/kg/injection, schedule: Q01DX009 (ip), vehicle: water): 167 % of control

CN(C)C(C(N(C)C)=[N+](C)C)=[N+](C)C
T/C [2]: 108 % of control and 109 % of control and 89 % of control | T/C [1]: 110 % of control and 111 % of control | T/C [3]: 100 % of control and 103 % of control and 88 % of control

Cc1cc(NC(=S)SCc2ccc(Cl)cc2)ccc1Cl
T/C (dose: 50.0 mg/kg/injection, schedule: Q01DX009 (ip), vehicle: Klucel (hydroxypropylcellulose) (HPC)): 103 % of control and 118 % of control | T/C (dose: 50.0 mg/kg/injection, schedule: Q01DX009 (ip), vehicle: suspension in saline): 97 % of control | T/C (dose: 100.0 mg/kg/injection, schedule: Q01DX009 (ip), vehicle: suspension in saline): 92 % of control | T/C (dose: 200.0 mg/kg/injection, schedule: Q01DX009 (ip), vehicle: suspension in saline): 96 % of control

C=C1CC/C=C(\C)C(=O)C[C@@H]2[C@@H]1CC2(C)C
T/C (dose: 0.37 mg/kg/injection, schedule: Q01DX009 (ip), vehicle: saline + alcohol): 106 % of control | T/C (dose: 0.75 mg/kg/injection, schedule: Q01DX009 (ip), vehicle: saline + alcohol): 108 % of control | T/C (dose: 1.5 mg/kg/injection, schedule: Q01DX009 (ip), vehicle: saline + alcohol): 106 % of control | T/C (dose: 3.0 mg/kg/injection, schedule: Q01DX009 (ip), vehicle: saline + alcohol): 94 % of control | T/C (dose: 6.0 mg/kg/injection, schedule: Q01DX009 (ip), vehicle: saline + alcohol): 98 % of control

CC1=CCCC2C1(C)CCC(C)C2(C)Cc1cc(O)ccc1O (configuration not stated)
T/C [4]: 100 % of control | T/C [5]: 103 % of control | T/C [6]: 107 % of control | T/C (dose: 100.0 mg/kg/injection, schedule: Q01DX001 (ip), vehicle: saline with Tween-80): 97 % of control | T/C [7]: 94 % of control | T/C (dose: 200.0 mg/kg/injection, schedule: Q01DX001 (ip), vehicle: saline with Tween-80): 99 % of control | T/C (dose: 400.0 mg/kg/injection, schedule: Q01DX001 (ip), vehicle: saline with Tween-80): 88 % of control

O=c1c2ccccc2nc2n1CCC/C2=C\c1ccc2c(c1)OCO2
T/C (dose: 91.75 mg/kg/injection, schedule: Q04DX002 (ip), vehicle: Klucel (hydroxypropylcellulose) (HPC)): 100 % of control | T/C (dose: 183.5 mg/kg/injection, schedule: Q04DX002 (ip), vehicle: Klucel (hydroxypropylcellulose) (HPC)): 103 % of control | T/C (dose: 367.0 mg/kg/injection, schedule: Q04DX002 (ip), vehicle: Klucel (hydroxypropylcellulose) (HPC)): 102 % of control

CCCC(=O)N1CCCCC1CC (configuration not stated)
T/C (dose: 100.0 mg/kg/injection, schedule: Q01DX001 (ip), vehicle: saline): 100 % of control | T/C (dose: 200.0 mg/kg/injection, schedule: Q01DX001 (ip), vehicle: saline): 102 % of control

O=C(Oc1c(Cc2ccccc2)c(=O)[nH]c2ccccc12)c1ccccc1
T/C [8]: 90 % of control | T/C [9]: 89 % of control

COC1=CC(=Nc2ccc(N(C)C)cc2)C=CC1=O
T/C (dose: 3.12 mg/kg/injection, schedule: Q01DX005 (ip), vehicle: saline): 106 % of control | T/C (dose: 6.25 mg/kg/injection, schedule: Q01DX005 (ip), vehicle: saline): 109 % of control | T/C (dose: 12.5 mg/kg/injection, schedule: Q01DX005 (ip), vehicle: saline): 106 % of control

CCOC(=O)c1cc2nc3ccccn3c(=O)c2cc1N
T/C [4]: 105 % of control and 93 % of control | T/C [5]: 87 % of control and 90 % of control | T/C [6]: 92 % of control | T/C [7]: 86 % of control and 96 % of control

CCOC(=O)N1C(C(=O)c2ccc(C)cc2)N(C2CCCCC2)C(c2ccccc2)N1C(=O)OCC (configuration not stated)
T/C [10]: 86 % of control

CCCCNC(C)(C)C(SS)c1ccc(C(F)(F)F)cc1 (configuration not stated)
T/C (dose: 50.0 mg/kg/injection, schedule: Q04DX003 (ip), vehicle: other): 100 % of control | T/C (dose: 100.0 mg/kg/injection, schedule: Q04DX003 (ip), vehicle: other): 104 % of control

Cc1cc2c(cc1C)NC1=C(N2)OC(c2ccc3c(c2)OCO3)C1=O (configuration not stated)
T/C (dose: 30.0 mg/kg/injection, schedule: Q01DX005 (ip), vehicle: Klucel (hydroxypropylcellulose) (HPC)): 88 % of control | T/C [8]: 101 % of control and 97 % of control | T/C [9]: 100 % of control and 104 % of control

COC(=O)C1=C/CCCN(CCC2OCCO2)/C=C\1C(=O)OC
T/C (dose: 100.0 mg/kg/injection, schedule: Q04DX003 (ip), vehicle: saline with Tween-80): 106 % of control | T/C (dose: 200.0 mg/kg/injection, schedule: Q04DX003 (ip), vehicle: saline with Tween-80): 99 % of control | T/C (dose: 400.0 mg/kg/injection, schedule: Q04DX003 (ip), vehicle: saline with Tween-80): 108 % of control

CCC1CN2CCc3cc(OC)c(OC)cc3C2CC1(O)C#N (configuration not stated)
T/C [11]: 99 % of control | T/C [12]: 102 % of control

COC(=O)/C1=C\CC/C(C(=O)OC)=C\C(=O)CCC1
T/C (dose: 25.0 mg/kg/injection, schedule: Q01DX005 (ip), vehicle: Klucel (hydroxypropylcellulose) (HPC)): 101 % of control | T/C [13]: 101 % of control | T/C [14]: 103 % of control

c1ccc(C2=NC3CCCCC3N=C2c2ccccc2)cc1 (configuration not stated)
T/C [7]: 100 % of control | T/C (dose: 200.0 mg/kg/injection, schedule: Q01DX009 (ip), vehicle: saline with Tween-80): 100 % of control | T/C [10]: 100 % of control

COC(=O)N(C)SN(C)C(=O)O/N=C(\SC)C(=O)N(C)C
T/C (dose: 1.56 mg/kg/injection, schedule: Q01DX009 (ip), vehicle: saline): 101 % of control | T/C (dose: 3.12 mg/kg/injection, schedule: Q01DX009 (ip), vehicle: saline): 102 % of control

CCCN1CCc2c([nH]c3cc(OC)ccc23)C1C (configuration not stated)
T/C (dose: 50.0 mg/kg/injection, schedule: Q01DX005 (ip), vehicle: saline with Tween-80): 100 % of control | T/C (dose: 100.0 mg/kg/injection, schedule: Q01DX005 (ip), vehicle: saline with Tween-80): 108 % of control

CCCCCCCCCCCCCCCCS(=O)(=O)c1ccc(NN)cc1
T/C [11]: 90 % of control | T/C [12]: 89 % of control | T/C (dose: 400.0 mg/kg/injection, schedule: Q01DX009 (ip), vehicle: Klucel (hydroxypropylcellulose) (HPC)): 87 % of control

[O-]c1on[n+](-c2ccccc2)c1CN1CCOCC1
T/C [13]: 107 % of control | T/C [14]: 111 % of control | T/C (dose: 200.0 mg/kg/injection, schedule: Q01DX005 (ip), vehicle: Klucel (hydroxypropylcellulose) (HPC)): 102 % of control

O=C1OCCOCCOCCOCCOC(=O)C1c1ccccc1
T/C (dose: 100.0 mg/kg/injection, schedule: Q04DX003 (ip), vehicle: Klucel (hydroxypropylcellulose) (HPC)): 101 % of control | T/C (dose: 200.0 mg/kg/injection, schedule: Q04DX003 (ip), vehicle: Klucel (hydroxypropylcellulose) (HPC)): 101 % of control | T/C (dose: 400.0 mg/kg/injection, schedule: Q04DX003 (ip), vehicle: Klucel (hydroxypropylcellulose) (HPC)): 101 % of control

CCC[CH2][Sn]([CH2]CCC)([CH2]CCC)[CH2]CCNCCCN(C)C
T/C (dose: 6.25 mg/kg/injection, schedule: Q01DX009 (ip), vehicle: saline): 96 % of control | T/C [2]: 97 % of control | T/C [1]: 96 % of control | T/C [3]: 90 % of control | T/C (dose: 100.0 mg/kg/injection, schedule: Q01DX009 (ip), vehicle: saline): 86 % of control
